According to patent US7208290B2, “Methods of co-expressing umami taste receptors and chimeric Gα15 variants” (Senomyx, Inc., priority 2002, dated 2007):

Molecular target: T1, rat T1R1/T1R3 umami taste receptor (Rattus norvegicus, UniProt Q9Z0R8)
T1 construct: expressed in transfected cells; host or cells: HEK-293 cells, transient transfection, pEAK10 expression vector
T1 sequence (Q9Z0R8 20-840): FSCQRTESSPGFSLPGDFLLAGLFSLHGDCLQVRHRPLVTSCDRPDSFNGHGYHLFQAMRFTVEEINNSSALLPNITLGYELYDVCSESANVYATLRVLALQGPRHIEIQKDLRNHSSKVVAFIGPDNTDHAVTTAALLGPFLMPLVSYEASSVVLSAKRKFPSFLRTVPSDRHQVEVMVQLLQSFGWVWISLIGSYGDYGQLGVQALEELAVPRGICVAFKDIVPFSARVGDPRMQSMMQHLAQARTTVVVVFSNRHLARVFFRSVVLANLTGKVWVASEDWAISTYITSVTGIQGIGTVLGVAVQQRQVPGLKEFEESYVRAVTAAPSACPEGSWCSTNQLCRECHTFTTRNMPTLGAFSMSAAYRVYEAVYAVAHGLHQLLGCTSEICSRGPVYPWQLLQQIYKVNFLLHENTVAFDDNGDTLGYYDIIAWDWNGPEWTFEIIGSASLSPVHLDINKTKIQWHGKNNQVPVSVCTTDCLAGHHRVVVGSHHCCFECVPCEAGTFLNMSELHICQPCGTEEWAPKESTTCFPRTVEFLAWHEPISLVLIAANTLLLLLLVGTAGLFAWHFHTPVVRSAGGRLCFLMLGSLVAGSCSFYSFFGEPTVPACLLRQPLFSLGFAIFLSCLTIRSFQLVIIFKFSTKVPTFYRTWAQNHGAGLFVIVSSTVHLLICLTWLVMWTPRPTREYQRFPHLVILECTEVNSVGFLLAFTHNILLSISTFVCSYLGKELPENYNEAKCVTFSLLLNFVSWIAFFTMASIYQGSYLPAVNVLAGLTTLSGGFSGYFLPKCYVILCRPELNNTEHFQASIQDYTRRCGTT
T1 sequence (Q923K1 21-858 partner): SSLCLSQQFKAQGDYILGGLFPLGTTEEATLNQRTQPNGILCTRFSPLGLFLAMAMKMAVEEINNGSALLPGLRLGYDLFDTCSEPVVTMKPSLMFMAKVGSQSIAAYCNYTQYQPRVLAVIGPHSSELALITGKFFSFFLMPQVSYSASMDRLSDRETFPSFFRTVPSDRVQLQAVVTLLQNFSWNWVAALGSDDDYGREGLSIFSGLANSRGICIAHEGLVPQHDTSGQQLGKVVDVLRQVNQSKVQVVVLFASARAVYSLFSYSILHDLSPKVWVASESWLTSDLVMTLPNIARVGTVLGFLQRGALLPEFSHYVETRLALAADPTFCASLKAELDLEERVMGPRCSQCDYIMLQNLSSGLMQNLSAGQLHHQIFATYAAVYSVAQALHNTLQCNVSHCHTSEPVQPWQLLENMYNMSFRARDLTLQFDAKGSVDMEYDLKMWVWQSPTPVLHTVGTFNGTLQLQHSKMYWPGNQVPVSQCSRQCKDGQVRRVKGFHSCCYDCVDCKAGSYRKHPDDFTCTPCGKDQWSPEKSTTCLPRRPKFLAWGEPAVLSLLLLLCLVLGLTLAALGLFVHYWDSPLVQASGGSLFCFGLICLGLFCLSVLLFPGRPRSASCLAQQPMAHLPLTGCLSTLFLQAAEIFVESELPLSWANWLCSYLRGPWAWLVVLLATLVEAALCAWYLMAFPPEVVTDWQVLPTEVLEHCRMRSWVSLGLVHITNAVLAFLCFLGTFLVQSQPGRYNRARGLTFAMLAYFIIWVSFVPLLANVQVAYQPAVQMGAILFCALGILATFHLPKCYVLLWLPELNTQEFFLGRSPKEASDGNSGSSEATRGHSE
Assay: calcium imaging in HEK-293 cells transiently transfected with rat T1R1, T1R3 and Gα15 or Gα15/i1
Format: cell-based
Conditions: HEK-293 transiently transfected with rat T1R1, T1R3 and Gα15/i1; in the presence of 2.5 mM IMP
Method: Rat T1R2 and T1R3 expression constructs were generated using the pEAK10 expression vector (Edge Biosystems). (Rat T1R1, T1R2, and T1R3 nucleic acid sequences are described in U.S. Provisional Application No. 60/339,472, incorporated by reference in its entirety herein). HEK-293 cells were grown and maintained at 37° C. in Dulbecco's Modified Eagle Medium (DMEM) supplemented with 10% FBS and MEM non-essential amino acids (Gibco BRL). For calcium-imaging experiments, cells were first seeded onto 24-well tissue-culture plates (approximately 100,000 cells per well), and transfected using Mirus Translt-293 (PanVera). Transfection efficiencies, which were estimated by cotransfection with an RFP expression vector, were typically approximately 70%. […] Calcium mobilization was monitored on an Axiovert S100 microscope equipped with an inverted 10×/0.5 LWD piano fluor objective (Zeiss) and a cooled CCD camera (Princeton Instruments). Fluorescence images were acquired at 480 nm excitation and 535 nm emission, and analyzed with Imaging Workbench 4.0 software (Axon Instruments). T1R receptor activity was quantitated by counting the number of responding cells 30 seconds after stimulus addition. […]

Compound | response of cells (intracellular calcium increase, number of responding cells) to umami taste stimuli
N[C@@H](CCC(=O)O)C(=O)O [L-glutamate] | responded
N[C@@H](CC(=O)O)C(=O)O [L-aspartate] | responded
